# Reference: patent US8404693B2, “Substituted piperidine compounds and methods of their use” (Adolor Corporation, priority 2003, dated 2013)
# How the values were obtained:
# [1] = target: T1, cloned human δ opioid receptor (Homo sapiens, UniProt P41143); experiment: [3H]diprenorphine receptor binding, δ opioid receptor; details: [3H]diprenorphine displacement; read-out: affinity (expressed as Ki value), δ opioid receptor
# T1 construct: expressed in transfected cells
# Description: (§1) The potencies of the compounds were determined by testing the ability of a range of concentrations of each compound to inhibit the binding of the non-selective opioid antagonist, [^3H]diprenorphine, to the cloned human μ, κ, and δ opioid receptors, expressed in separate cell lines. IC50 values were obtained by nonlinear analysis of the data using GraphPad Prism version 3.00 for Windows (GraphPad Software, San Diego). Ki values were obtained by Cheng-Prusoff corrections of IC50 values.
# (§2) The receptor binding method (DeHaven and DeHaven-Hudkins, 1998) was a modification of the method of Raynor et al. (1994). […] The filters were rinsed 4 times with 1 mL of cold 50 mM Tris HCl, pH 7.8 and radioactivity remaining on the filters determined by scintillation spectroscopy. Nonspecific binding was determined by the minimum values of the titration curves and was confirmed by separate assay wells containing 10 μM naloxone. Ki values were determined by Cheng-Prusoff corrections of IC50 values derived from nonlinear regression fits of 12 point titration curves using GraphPad Prism® version 3.00 for Windows (GraphPad Software, San Diego, Calif.).
# (§3) To determine the equilibrium dissociation constant for the inhibitors (Ki), radioligand bound (cpm) in the presence of various concentrations of test compounds was measured. […]
# [2] = target: T2, cloned human μ opioid receptor (Homo sapiens, UniProt P35372); experiment: [3H]diprenorphine receptor binding, μ opioid receptor; details: [3H]diprenorphine displacement; read-out: affinity (expressed as Ki value), μ opioid receptor
# T2 construct: expressed in transfected cells
# T2 sequence (P35372 whole entry): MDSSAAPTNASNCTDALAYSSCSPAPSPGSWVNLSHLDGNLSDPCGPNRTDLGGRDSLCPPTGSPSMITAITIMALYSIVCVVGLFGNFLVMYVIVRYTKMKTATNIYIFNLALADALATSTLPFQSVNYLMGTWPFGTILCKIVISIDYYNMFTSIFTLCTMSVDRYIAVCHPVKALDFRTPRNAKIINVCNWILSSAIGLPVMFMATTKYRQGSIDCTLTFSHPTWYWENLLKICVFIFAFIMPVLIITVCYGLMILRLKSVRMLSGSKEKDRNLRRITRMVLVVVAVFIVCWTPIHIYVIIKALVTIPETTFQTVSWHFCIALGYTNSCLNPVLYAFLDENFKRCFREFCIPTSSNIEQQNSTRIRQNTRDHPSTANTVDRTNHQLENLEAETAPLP
# Description: as §1, §2, §3
# [3] = system: Mouse Gastrointestinal Transit (GIT); experiment: Mouse Gastrointestinal Transit (GIT) Assay; type: in vivo; details: 10 mg/kg p.o., morphine 3 mg/kg s.c.
# Description: Male Swiss-Webster mice (25-30 g) obtained from Ace Animals (Boyertown, Pa.) were used for all experiments. Mice were housed 4/cage in polycarbonate cages with food and water available ad libitum. Mice were on a 12 hours light:dark schedule with lights on at 6:30 a.m. All experiments were performed during the light cycle. Mice were fasted the night before the experiment, with water available ad libitum.
# Mice were administered vehicle (10% DMSO:20% Cremophor EL:70% saline) or test compound (10 mg/kg) orally 2 or 6 hours before determination of GIT. Compounds were administered in a volume of 0.1 ml/10 g of body weight. Morphine (3 mg/kg) or vehicle (0.9% saline) was administered s.c. 35 min prior to determination of GIT. Ten minutes after the morphine treatment, mice were administered 0.2 ml of a charcoal meal orally. The charcoal meal consisted of a slurry of charcoal, flour, and water in the following ratio (1:2:8, w:w:v). Twenty-five minutes after receiving the charcoal meal, the mice were euthanized with CO2 and GIT determined.
# GIT is expressed as the % GIT by the following formula:
# [formula] For each compound a % Antagonism (% A) value was determined for the 2 and 6 hr antagonist pretreatment. Using the mean % GIT for each treatment group, % A was calculated using the following formula: […]
# [4] = target: T2, cloned human μ opioid receptor; experiment: inhibition of agonist (loperamide)-stimulated [35S]GTPγS binding; type: biochemical; details: receptor not given; mu opioid receptor from context; read-out: in vitro antagonist activity (IC50)
# Description: The potencies of the antagonists were assessed by their abilities to inhibit agonist-stimulated [^35S]GTPγS binding to membranes containing the cloned human μ, κ, or δ opioid receptors. The agonists used were loperamide for the μ opioid receptor, U50488H for the κ opioid receptor, and BW373U86 for the δ opioid receptor.
# To determine the IC50 value, which was the concentration to give half-maximal inhibition of agonist-stimulated [^35S]GTPγS binding, the amount of [^35S]GTPγS bound in the presence of a fixed concentration of agonist and various concentrations of antagonist was measured. The fixed concentration of agonist was the EC80 for the agonist, which was the concentration to give 80% of the relative maximum stimulation of [^35S]GTPγS binding. The IC50 value was determined from a best nonlinear regression fit of the data to the following equation,
# where Y is the amount of [^35S]GTPγS bound at each concentration of antagonist, Bottom is the calculated amount of [^35S]GTPγS bound in the presence of an infinite concentration of antagonist, Top is the calculated amount of [^35S]GTPγS bound in the absence of added antagonist, X is the logarithm of the concentration of antagonist, and Log IC50 is the logarithm of the concentration of antagonist where the amount of [^35S]GTPγS bound is halfway between Bottom and Top. […]
# [5] = target: T3, cloned human κ opioid receptor (Homo sapiens, UniProt P41145); experiment: [3H]diprenorphine receptor binding, κ opioid receptor; details: [3H]diprenorphine displacement; read-out: affinity (expressed as Ki value), κ opioid receptor
# T3 construct: expressed in transfected cells
# T3 sequence (P41145 whole entry): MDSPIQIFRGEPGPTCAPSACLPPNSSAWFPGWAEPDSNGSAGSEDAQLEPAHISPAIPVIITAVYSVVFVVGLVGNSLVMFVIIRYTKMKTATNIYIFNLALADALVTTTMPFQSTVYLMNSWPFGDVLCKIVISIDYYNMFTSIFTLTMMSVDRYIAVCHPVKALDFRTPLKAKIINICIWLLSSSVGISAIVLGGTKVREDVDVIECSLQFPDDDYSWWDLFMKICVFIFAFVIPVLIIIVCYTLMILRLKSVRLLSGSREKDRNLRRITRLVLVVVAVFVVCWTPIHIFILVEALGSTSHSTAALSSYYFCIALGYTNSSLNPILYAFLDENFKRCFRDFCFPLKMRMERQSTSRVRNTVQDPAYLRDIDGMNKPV
# Description: as §1, §2, §3
# T1 sequence (P41143 whole entry): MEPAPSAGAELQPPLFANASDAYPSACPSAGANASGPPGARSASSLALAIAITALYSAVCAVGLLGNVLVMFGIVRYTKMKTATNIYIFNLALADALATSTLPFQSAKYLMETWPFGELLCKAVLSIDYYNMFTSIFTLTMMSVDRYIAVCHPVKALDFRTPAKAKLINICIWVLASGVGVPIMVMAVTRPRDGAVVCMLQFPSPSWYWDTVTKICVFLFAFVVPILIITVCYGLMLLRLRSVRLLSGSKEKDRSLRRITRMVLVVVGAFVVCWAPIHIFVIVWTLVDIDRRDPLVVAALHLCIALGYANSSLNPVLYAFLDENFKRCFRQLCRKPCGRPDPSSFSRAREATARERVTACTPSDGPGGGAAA
Compound,Ki [1] [nM],Ki [2] [nM],% antagonism ([3]; 2 h pretreatment) [%],% antagonism ([3]; 6 h pretreatment) [%],IC50 [4] [nM],Ki [5] [nM]
"C[C@H]1CN(CC(Cc2ccccc2)C(=O)NCC(=O)O)CC[C@@]1(C)c1cccc(C(=O)O)c1 (stereo in doubt) [Example 28, [[2(R)-[[4(R)-(3-carboxyphenyl)-3(R),4-dimethyl-1-piperidin-yl]methyl]-1-oxo-3-phenylpropyl]amino]acetic Acid]",1330,19,86,71,3.4,
"C[C@H]1CN(C[C@H](Cc2ccccc2)C(=O)NCC(=O)O)CC[C@@]1(C)c1cccc(C(N)=O)c1 [Example 58, [[2(R)-[[4(R)-(3-amidophenyl)-3(R),4-dimethyl-1-piperidinyl]methyl]-1-oxo-3-phenylpropyl]amino]acetic Acid]",85,2.6,92,61,3,1080
